For four compounds, remaining activity results are on record in patent US4764460A, “Recombinant sigma NS protein” (priority 1985, dated 1988).

This experiment deals with T1, rσNS (Reovirus type 3, UniProt P03526).
T1 construct: made in house; host or cells: E. coli RR1 (pRK248cIts) carrying pRC23-S3
Put plainly: Inhibition of binding of reovirus ssRNA to rσNS by ribonucleotides. As to conditions: for remaining activity at 10000 µM: ribonucleotide 10 mM. As for the experimental part:
In a preliminary experiment it was noticed that the capacity of rσNS to bind (ss) RNAs was abolished if all four ribonucleotides were included in the reaction mixture. The ability of each of the four ribonucleotides (ATP, CTP, GTP, and UTP) to inhibit binding was then examined. […] With the amount of rσNS used in these experiments (130 ng per reaction) GTP inhibition was evident between 0.5 mM and 1 mM (Table 3). The other three ribonucleotides caused little interference with binding even at concentrations of 10 mM (Table 3). This was an important observation for developing σNS as a concentrator of (ss) RNA in test samples to be used in hybridization probe assays. […] The isolated (ss) RNA can then be treated with the hybridization probe in a conventional manner. Obviously since the binding of the σNS protein with the (ss) RNA is non-specific, the specificity of the assay is fully determined by the specificity of the hybridization probe for the desired RNA being assayed.

[1] abbreviates: read-out: % of [32P]-labeled reovirus ssRNA retained on nitrocellulose membrane, expressed as percentage of control, EXP. 1, ribonucleotide 2 mM (mixture 2 mM each), 130 ng rσNS per reaction.
[2] abbreviates: read-out: % of [32P]-labeled reovirus ssRNA retained on nitrocellulose membrane, expressed as percentage of control, EXP. 2.

Read-outs that look alike come from different tables or passages of the source.

T1 sequence (P03526 whole entry): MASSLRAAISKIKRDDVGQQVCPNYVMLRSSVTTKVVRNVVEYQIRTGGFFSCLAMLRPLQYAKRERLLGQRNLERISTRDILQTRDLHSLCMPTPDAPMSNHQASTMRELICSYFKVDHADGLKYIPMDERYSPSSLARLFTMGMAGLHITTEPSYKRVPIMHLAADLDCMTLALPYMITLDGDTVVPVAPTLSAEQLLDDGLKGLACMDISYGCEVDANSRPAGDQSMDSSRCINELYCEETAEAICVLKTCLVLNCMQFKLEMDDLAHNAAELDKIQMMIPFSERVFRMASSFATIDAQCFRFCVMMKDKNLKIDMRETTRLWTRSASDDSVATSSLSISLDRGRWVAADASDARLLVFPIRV

For `O=c1ccn([C@@H]2O[C@H](COP(=O)(O)OP(=O)(O)OP(=O)(O)O)[C@@H](O)[C@H]2O)c(=O)[nH]1` [UTP], the remaining activity at 2000 µM under setting [1] came out at 59%. Besides, under setting [2], the remaining activity at 10000 µM is 68%.
For `Nc1nc2c(ncn2[C@@H]2O[C@H](COP(=O)(O)OP(=O)(O)OP(=O)(O)O)[C@@H](O)[C@H]2O)c(=O)[nH]1` [GTP], the remaining activity at 2000 µM under setting [1] amounted to 5% and the remaining activity at 2000 µM (read-out: % of [32P]-labeled reovirus ssRNA retained on nitrocellulose membrane, expressed as percentage of control, EXP. 2, ribonucleotide 2 mM) was determined as 15%. The remaining activity at 100 µM (read-out: % of [32P]-labeled reovirus ssRNA retained on nitrocellulose membrane, expressed as percentage of control, EXP. 2, ribonucleotide 0.1 mM) amounted to 93%. Moreover, for the setting “read-out: % of [32P]-labeled reovirus ssRNA retained on nitrocellulose membrane, expressed as percentage of control, EXP. 2, ribonucleotide 0.5 mM”, the remaining activity at 500 µM was 95%. The remaining activity at 1000 µM (read-out: % of [32P]-labeled reovirus ssRNA retained on nitrocellulose membrane, expressed as percentage of control, EXP. 2, ribonucleotide 1 mM) was found to be 29%. For the same compound, under setting [2], the remaining activity at 10000 µM was determined as 0%.
`Nc1ncnc2c1ncn2[C@@H]1O[C@H](COP(=O)(O)OP(=O)(O)OP(=O)(O)O)[C@@H](O)[C@H]1O` [ATP]: the remaining activity at 2000 µM under setting [1] was determined as 61%. Further, the remaining activity at 10000 µM under setting [2] was 95%.
For `Nc1ccn([C@@H]2O[C@H](COP(=O)(O)OP(=O)(O)OP(=O)(O)O)[C@@H](O)[C@H]2O)c(=O)n1` [CTP], in that order: 58% and 81%.
